We go through two molecules from US20220227849A1, “INHIBITOR OF SURFACE PROTEIN (SP-D) / SIRPA / SHP2 PATHWAY FOR USE IN THE PREVENTION AND/OR TREATMENT OF SECONDARY INFECTION” (UNIVERSITÉ DE NANTES, priority 2019, published 2022).

For this assay, the system named is alveolar macrophages. Put plainly: In vivo phagocytic assay of alveolar macrophages 7 days after aseptic lung inflammatory response (intratracheal instillation). Conditions: wild type mice inoculated intratracheally 7 days prior; TNF-α 2.5 μg, HMGB1 10 μg; 2 hours after YFP-E. coli; FIG. 3f. As to the method: CpG 1668 (10 nM), TNF-α (2.5 μg, Myltenyi Biotec, Paris, France) and HMGB1 (10 μg, Elabscience, Tex., USA) were administrated intra-tracheally under anaesthesia. Mice were kept in a semi-recumbent position for 60 seconds after injection.
Recipient mice were γ-irradiated twice with […] and were reconstituted with 2.5-5×10^6 T cell-depleted bone marrow cells of each relevant donor strain at the indicated ratio. Neomycin (50 mg/ml) was added to the drinking water for the next 4 weeks. Chimeras were used for subsequent experiments 6 to 10 weeks after the reconstitution. Percentage of chimerism was tested during the experiments.
YFP-S. aureus (Strain RN4220 with YFP/erm2 plasmid, kindly gifted by Malone, C. L. et al. 2009 [29]), and YFP-E. coli (strain DH5alpha with p-HG-1 plasmid, kindly gifted by Janssen, W. J. et al 2011 [30]) were grown overnight in Luria broth media with erythromycin 10 μg/mL or 20 μg/mL chloramphenicol, respectively. Fluoresbrite YG carboxylate microspheres (3.64 10^9 beads, […]; Polysciences), YFP-E. coli (OD600=2-3, 75 μL) or YFP-S. aureus (OD600=5-6, 75 μL) were injected i.t. in mice. 2 hours later, the percentages of FITC or YFP^+ macrophages in the lungs were measured by flow cytometry. In vitro phagocytic assay for splenic macrophages

With TNF-α, the “phagocytic function of AM after YFP-E. coli pneumonia” value is “displayed impaired phagocytic function”.

B1: HMGB1: danger-associated molecular pattern protein (Elabscience) administered intra-tracheally (protein, UniProt P63158 1-215, looked up)
High mobility group protein B1: MGKGDPKKPRGKMSSYAFFVQTCREEHKKKHPDASVNFSEFSKKCSERWKTMSAKEKGKFEDMAKADKARYEREMKTYIPPKGETKKKFKDPNAPKRPPSAFFLFCSEYRPKIKGEHPGLSIGDVAKKLGEMWNNTAADDKQPYEKKAAKLKEKYEKDIAAYRAKGKPDAAKKGVVKAEKSKKKKEEEDDEEDEEDEEEEEEEEDEDEEEDDDDE
B1: the “phagocytic function of AM after YFP-E. coli pneumonia” value is “but not those of HMGB1 treated mice, displayed impaired phagocytic function”.
